From ChEMBL document CHEMBL5360646, “Optimization of M3 Antagonist-PDE4 Inhibitor (MAPI) Dual Pharmacology Molecules for the Treatment of COPD” (J Med Chem, 2023)

Assays:
[1] = Metabolic stability in human lung S9 fraction assessed as half life at 1 uM and measured upto 60 mins in presence of NADPH by LC-MS/MS analysis; format: ADME, subcellular; conditions: for t1/2: s9, 1 h, 1 µM, 1 h
[2] = biological target: Muscarinic acetylcholine receptor M3 (Homo sapiens, UniProt P20309); assay: Displacement of [3H]N-methylscopolamine chloride from human muscarinic M3 receptor incubated for 2 hrs by radioligand binding assay
Chain of Muscarinic acetylcholine receptor M3 (P20309 whole entry): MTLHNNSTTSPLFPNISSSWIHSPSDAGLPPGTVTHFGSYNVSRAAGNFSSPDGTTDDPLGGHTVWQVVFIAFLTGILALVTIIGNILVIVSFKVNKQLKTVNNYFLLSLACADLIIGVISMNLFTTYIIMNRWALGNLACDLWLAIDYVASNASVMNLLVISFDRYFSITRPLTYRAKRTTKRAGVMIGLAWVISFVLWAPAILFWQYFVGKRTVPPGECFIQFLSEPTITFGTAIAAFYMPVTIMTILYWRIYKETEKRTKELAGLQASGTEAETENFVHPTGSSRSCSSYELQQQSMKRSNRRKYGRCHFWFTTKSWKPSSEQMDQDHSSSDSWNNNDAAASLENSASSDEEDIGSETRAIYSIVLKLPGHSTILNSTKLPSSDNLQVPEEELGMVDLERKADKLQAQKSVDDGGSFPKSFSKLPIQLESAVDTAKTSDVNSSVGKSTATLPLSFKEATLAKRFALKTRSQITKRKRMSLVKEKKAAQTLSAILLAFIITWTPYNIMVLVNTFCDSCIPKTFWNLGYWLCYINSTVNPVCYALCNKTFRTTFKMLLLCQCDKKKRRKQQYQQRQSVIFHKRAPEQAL

[3] = Metabolic stability in rat plasma assessed as half life at 5 uM and measured upto 180 mins by HPLC-MS/MS analysis; format: ADME, cell-free; conditions: for t1/2: 3 h, 5 µM
[4] = Metabolic stability in human plasma assessed as half life at 5 uM and measured upto 180 mins by HPLC-MS/MS analysis; format: ADME, cell-free
[5] = Metabolic stability in rat liver microsomes assessed as intrinsic clerance at 1 uM and measured upto 60 mins by HPLC-MS/MS analysis; format: ADME, Microsome; conditions: microsomes, 1 h, 1 µM
[6] = Antiinflammatory activity against LPS-stimulated human PBMC cells assessed reduction in TNFalpha level incubated for 18 hrs by ELISA analysis; format: functional, cell-based; conditions: for IC50: Homo sapiens, PBMC, 18 h; for pIC50: pbmc
[7] = biological target: 3',5'-cyclic-AMP phosphodiesterase 4B (Homo sapiens, UniProt Q07343); assay: Inhibition of human recombinant PDE4B2 expressed in baculovirus expression system using cAMP as substrate incubated for 2 hrs by HTRF assay
Chain of 3',5'-cyclic-AMP phosphodiesterase 4B (Q07343 whole entry): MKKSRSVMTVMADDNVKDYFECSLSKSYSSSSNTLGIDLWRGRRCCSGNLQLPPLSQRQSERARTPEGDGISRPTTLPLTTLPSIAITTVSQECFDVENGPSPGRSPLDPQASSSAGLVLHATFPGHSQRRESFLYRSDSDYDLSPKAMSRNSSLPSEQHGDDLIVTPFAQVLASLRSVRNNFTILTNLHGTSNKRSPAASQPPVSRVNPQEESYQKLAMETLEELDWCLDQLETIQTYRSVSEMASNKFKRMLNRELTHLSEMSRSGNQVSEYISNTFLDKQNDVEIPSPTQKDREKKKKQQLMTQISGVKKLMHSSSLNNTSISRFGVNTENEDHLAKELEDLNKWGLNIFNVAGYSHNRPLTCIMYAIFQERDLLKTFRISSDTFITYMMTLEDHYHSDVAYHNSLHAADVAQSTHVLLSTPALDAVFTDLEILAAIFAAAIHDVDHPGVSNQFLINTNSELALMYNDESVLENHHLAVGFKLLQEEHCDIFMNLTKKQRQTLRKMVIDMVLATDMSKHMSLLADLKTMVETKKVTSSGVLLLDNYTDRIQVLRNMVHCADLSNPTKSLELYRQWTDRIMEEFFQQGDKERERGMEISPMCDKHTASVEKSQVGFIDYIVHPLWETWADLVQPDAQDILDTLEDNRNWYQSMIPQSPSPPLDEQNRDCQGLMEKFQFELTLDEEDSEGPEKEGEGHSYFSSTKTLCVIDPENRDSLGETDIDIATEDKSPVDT

[8] = Metabolic stability in rat lung S9 fraction assessed as half life at 1 uM and measured upto 60 mins in presence of NADPH by LC-MS/MS analysis; format: ADME, subcellular; conditions: s9, 1 h, 1 µM, 1 h
[9] = tested on: Trachea; assay: Bronchoconstriction activity in Sprague-Dawley rat trachea assessed as inhibition of carbachol-induced tracheal contraction; format: functional, tissue-based; conditions: for IC50: Rattus norvegicus, Sprague-Dawley, Trachea
[10] = Metabolic stability in human liver microsomes assessed as intrinsic clerance at 1 uM and measured upto 60 mins by HPLC-MS/MS analysis; format: ADME, Microsome; conditions: for CLH: microsomes, 1 h, 1 µM
[11] = Toxicity in pilocarpine hydrochloride induced salivation Sprague-Dawley rat model assessed as inhibition of salivary secretion at 3 mM,INH for 10 mins; conditions: Sprague-Dawley, in vivo, inhaled or intranasal, read-out: Activity
[12] = tested on: Rattus norvegicus; assay: Anti-bronchospastic activity in carbachol-induced bronchospasm Sprague-Dawley rat model assessed as inhibition of carbachol-induced bronchoconstriction at 10 nmol/kg, IT(Intratracheal) administered 16 hr prior to carbachol challenge; format: functional; parameters: scale not given: the % may be the effect or the level left
[13] = tested on: Rattus norvegicus; assay: Anti-bronchospastic activity in carbachol-induced bronchospasm Sprague-Dawley rat model assessed as inhibition of carbachol-induced bronchoconstriction administered IT(Intratracheal) for 1 hr prior to carbachol challenge; format: functional
[14] = tested on: Rattus norvegicus; assay: Anti-bronchospastic activity in carbachol-induced bronchospasm Sprague-Dawley rat model assessed as inhibition of carbachol-induced bronchoconstriction at 10 nmol/kg, IT(Intratracheal) administered 1 hr prior to carbachol challenge; format: functional; parameters: scale not given: the % may be the effect or the level left
[15] = Ratio of ED50 for Anti-inflammatory activity against OVA-sensitized Brown-Norway rat airway inflammation model to ED50 for Anti-bronchospastic activity in carbachol-induced bronchospasm Sprague-Dawley rat model; format: functional
[16] = tested on: Rattus norvegicus; assay: Anti-inflammatory activity against OVA-sensitized Brown-Norway rat airway inflammation model assessed as inhibition of OVA-induced eosinophil influx administered IT(Intratracheal) 2 hrs prior to OVA challenge; format: functional

SMILES: COc1ccc([C@H](Cc2c(Cl)c[n+]([O-])cc2Cl)OC(=O)c2ccc(CNC(C)(C(=O)O[C@H]3CN4CCC3CC4)c3ccccc3)s2)cc1OC (stereo in doubt; 1f)
- half-life at 1 µM ([1]; lung S9 fraction): 1.83 h
- Ki [2]: 0.2 nM
- half-life at 5 µM [3]: 1.43 h
- half-life at 5 µM [4]: 2.9 h
- CLH [5]: 481 µL/min/mg
- IC50 [6]: 15.8 nM
- IC50 [7]: 3.98 nM
- t1/2 [8]: 4.67 h
- IC50 [9]: 2.51 nM
- microsomal CLint at 1 µM ([10]; liver microsomes, read-out: CLH): 470 µL/min/mg

SMILES: CCC(NCc1ccc(C(=O)O[C@@H](Cc2c(Cl)c[n+]([O-])cc2Cl)c2ccc(OC)c(OC)c2)s1)(C(=O)O[C@H]1CN2CCC1CC2)c1ccccc1 (stereo in doubt; 2f)
- Ki [2]: 0.316 nM
- IC50 [6]: 2.51 nM
- IC50 [7]: 2.51 nM
- IC50 [9]: 25.1 nM

SMILES: COc1ccc([C@H](Cc2c(Cl)c[n+]([O-])cc2Cl)OC(=O)c2ccc(CNC(C)(C(=O)O[C@H]3CN4CCC3CC4)c3ccccc3)s2)cc1OC (stereo in doubt; 1s)
- t1/2 [1]: 2.08 h
- Ki [2]: 0.158 nM
- t1/2 [3]: 0.983 h
- t1/2 ([4]; 3 h, 5 µM): 3.18 h
- CLH [5]: 48 µL/min/mg
- pIC50 [6]: 7.9
- IC50 [7]: 1.26 nM
- t1/2 [8]: 1.82 h
- pIC50 [9]: 8.5
- CLH [10]: 481 µL/min/mg

SMILES: C[N+]1(C)[C@@H]2C[C@@H](OC(=O)C(O)(c3cccs3)c3cccs3)C[C@H]1[C@@H]1O[C@@H]12 [TIOTROPIUM]
- inhibition at 10 min, 3000 µM [11]: 62%

SMILES: CCOc1cc([C@@H](Cc2c(Cl)c[n+]([O-])cc2Cl)OC(=O)c2ccc(CN[C@@](CO)(C(=O)O[C@H]3CN4CCC3CC4)c3ccccc3)s2)ccc1OC
- Ki [2]: 25.1 nM
- IC50 [7]: 6.31 nM

SMILES: CCOc1cc([C@H](Cc2c(Cl)c[n+]([O-])cc2Cl)OC(=O)c2ccc(CN[C@](CO)(C(=O)O[C@H]3CN4CCC3CC4)c3ccccc3)s2)ccc1OC
- Activity [12]: 82%
- Ki [2]: 0.251 nM
- ED50 ([13]; Rattus norvegicus, Sprague-Dawley, read-out: ED50): 0.0031 µmol/kg
- Activity [14]: 89%
- IC50 [6]: 0.398 nM
- IC50 [7]: 0.631 nM
- Ratio ED50 [15]: 7.7
- ED50 [16]: 0.024 µmol/kg
- IC50 [9]: 3.98 nM

SMILES: COc1cc(C(=O)O[C@@H](Cc2c(Cl)c[n+]([O-])cc2Cl)c2ccc(OC)c(OC)c2)ccc1CNC(C(=O)O[C@H]1CN2CCC1CC2)c1ccccc1 (some centres not stated)
- Ki [2]: 0.631 nM
- IC50 [7]: 5.01 nM

SMILES: COc1ccc([C@H](Cc2c(Cl)c[n+]([O-])cc2Cl)OC(=O)c2ccc(CNC(CO)(C(=O)O[C@H]3CN4CCC3CC4)c3ccccc3)s2)cc1OC (stereo in doubt; 3s)
- Activity [12]: 82%
- t1/2 [1]: 1.3 h
- Ki [2]: 0.2 nM
- t1/2 [3]: 1.95 h
- CLH [5]: 189 µL/min/mg
- ED50 [13]: 0.0008 µmol/kg
- Activity [14]: 81%
- pIC50 [6]: 9.2
- IC50 [7]: 0.501 nM
- Ratio ED50 [15]: 20
- t1/2 [8]: 1.38 h
- ED50 [16]: 0.016 µmol/kg
- pIC50 [9]: 8.4
- CLH [10]: 196 µL/min/mg

SMILES: COc1ccc([C@H](Cc2c(Cl)c[n+]([O-])cc2Cl)OC(=O)c2ccc(CNC(CO)(C(=O)O[C@H]3CN4CCC3CC4)c3ccccc3)c(OCC3CC3)c2)cc1OC (stereo in doubt; 9f)
- Ki [2]: 31.6 nM
- IC50 [7]: 0.501 nM

SMILES: COc1ccc([C@H](Cc2c(Cl)c[n+]([O-])cc2Cl)OC(=O)c2ccc(CNC(C(=O)O[C@H]3CN4CCC3CC4)c3ccccc3)c(OCC3CC3)c2)cc1OC (some centres not stated)
- Ki [2]: 2.51 nM
- IC50 [7]: 1 nM

SMILES: CCC(NCc1ccc(C(=O)O[C@@H](Cc2c(Cl)c[n+]([O-])cc2Cl)c2ccc(OC)c(OC)c2)s1)(C(=O)O[C@H]1CN2CCC1CC2)c1ccccc1 (stereo in doubt; 2s)
- Ki [2]: 3.98 nM
- IC50 [7]: 3.16 nM

SMILES: COc1ccc([C@H](Cc2c(Cl)c[n+]([O-])cc2Cl)OC(=O)c2ccc(CNC(CO)(C(=O)O[C@H]3CN4CCC3CC4)c3ccccc3)s2)cc1OCC1CC1 (stereo in doubt; 11s)
- Ki [2]: 0.251 nM
- pIC50 [6]: 8.5
- IC50 [7]: 1.26 nM
- pIC50 [9]: 7.8
